Data from patent publication US20260242359A1, “IRHOM2 INHIBITORS AND USES THEREOF” (NEW YORK SOCIETY FOR THE RELIEF OF THE RUPTURED AND …, priority 2023, published 2026).

System: PMA-induced release of endogenous IL-6R from human peripheral blood mononuclear cells (PBMCs)
Test: Example 14: ELISA-based IL-6R release assay, PMA-induced, PBMCs from healthy donor
Format: cell-based
Details: 10 μM final concentration, PMA 25 ng/ml, delta Buffer stimulated vs unstimulated = 100% inhibition; for inhibition at 10 µM: Homo sapiens, PBMC
Experimental: In the following study, ELISA-based IL-6R release assays were performed to analyze the inhibitory effects of Compounds 1, 2, 3, 4, 5, and 7 on PMA-induced release of endogenous IL-6R from primary human material obtained from healthy donor using peripheral blood mononuclear cells (PBMCs). The ELISA-based IL-6R release assay that was used in this example is described below.
In brief, on day 1, Nunc black MaxiSorp® 96-well plates (Thermo Fisher Scientific, USA) were coated overnight with […] per well of mouse anti-human IL-6R capture antibody (provided as part of the DuoSet ELISA kit) at 2 μg/ml TBS at 4° C.
40,000 PBMCs from healthy donor (SciRhom GmbH, Germany) in 80 μl of normal growth medium were seeded in each well of Greiner CELLSTAR V-bottom 96-well plates (Greiner Bio-One, Germany) and pre-incubated with 20 μl per well of standard growth medium supplemented with Batimastat (BB94, Abcam, UK) at 50 μM as positive control (for a final concentration of 10 μM in the resulting 100 μl sample volume), compounds of the invention at 50 μM (for a final concentration of 10 μM in the resulting 100 μl sample volume) and in case of Buffer stimulated and unstimulated controls with DMSO (Carl Roth, Germany) at 50 μM (for a final concentration of 10 μM in the resulting 100 μl sample volume) at 37° C., 5% CO2 for 30 minutes. Subsequently, cells (except those for unstimulated controls) were stimulated with 20 μl per well of PMA (Sigma-Aldrich, USA) at 150 ng/ml in growth medium for a final concentration of 25 ng/ml at 37° C., 5% CO2 for 22 hours.
On day 2, the capture antibody solution was removed and MaxiSorp® plates were blocked with 300 μl per well of TBS, 1% BSA at room temperature for 2-3 hours. Meanwhile, the 96-well plates were centrifuged to pellet cells. In parallel, blocking buffer was removed from the MaxiSorp® plates and plates were washed 4 times with 350 μl TBS-T (Carl Roth, Germany) per well on a 96-head plate washer (Tecan Group, Switzerland). To avoid drying-up, 30 μl TBS were added to each well of the MaxiSorp® plates immediately, followed by the transfer of 70 μl cell-free supernatant per sample. Additionally, 100 μl recombinant human IL-6R protein (provided as part of the DuoSet ELISA kit) diluted in TBS at defined concentrations were added to the plate as standard references. Plates were incubated at room temperature for 2 hours. After 4 times washing with 350 μl TBS-T (Carl Roth, Germany) per well on a 96-head plate washer (Tecan Group, Switzerland) and careful removal of all buffer traces after the fourth cycle, 100 μl biotinylated goat anti-human IL-6R detection antibody (provided as part of the DuoSet ELISA kit) at 100 ng/ml TBS were added per well and, protected from direct light, plates were incubated at room temperature for 2 hours. After 4 times washing with 350 μl TBS-T (Carl Roth, Germany) per well on a 96-head plate washer (Tecan Group, Switzerland) and careful removal of all buffer traces after the fourth cycle, 100 μl streptavidin-AP (R&D Systems, USA) diluted 1:10,000 in TBS were added to each well and, again protected from direct light, plates were incubated at room temperature for 30 minutes. Following another round of 4 times washing with 350 μl TBS-T (Carl Roth, Germany) per well on a 96-head plate washer (Tecan Group, Switzerland) and careful removal of all buffer traces after the fourth cycle, 100 μl AttoPhos substrate solution (Promega, USA) per well was added for incubation in the dark at room temperature for 1 hour. Using an infinite M1000 (Tecan Group, Switzerland) microplate reader, the fluorescence of each well was collected at an excitation wavelength of 435 nm and an emission wavelength of 555 nm.
The delta between Buffer stimulated and Buffer unstimulated was defined 100% inhibition.

SMILES: CCOC(=O)c1ccc(Nc2nc3nonc3n3nnnc23)cc1 [Compound 2]
- inhibition at 10 µM (22 h): 111%

SMILES: Cc1c(C(=O)NCc2cccs2)sc(=O)n1Cc1ccccc1 [Compound 4]
- inhibition at 10 µM (22 h): 6.2%

SMILES: O=C(c1c(Cl)cccc1Cl)N1CCC(Cc2ccc(F)cc2)CC1 [Compound 3]
- inhibition at 10 µM (22 h): 0%

SMILES: Cc1c(C(=O)NCc2cccs2)sc(=O)n1Cc1ccccc1F [Compound 5]
- inhibition at 10 µM (22 h): 6.5%

SMILES: CNC(=O)[C@H](Cc1ccccc1)NC(=O)[C@H](CC(C)C)[C@H](CSc1cccs1)C(=O)NO [Batimastat, reference compound]
- inhibition of PMA-induced release of IL-6R from PBMCs from healthy donor (22 hours): 98.5%
- inhibition at 10 µM (22 h): 100%

SMILES: CCC(=O)NCCc1c(/C=C2/C(=O)NC(=O)N(c3ccc(C)cc3C)C2=O)[nH]c2ccccc12 [Compound 1]
- inhibition at 10 µM (22 hours): 112%

SMILES: Cc1c(C(=O)NCc2ccco2)sc(=O)n1Cc1ccccc1F [Compound 7]
- inhibition at 10 µM (22 h): 59.1%
